The values that follow come from ChEMBL document CHEMBL1201862, “PubChem BioAssay data set” (2004).

The structures appear in SMILES notation.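 Following 48 hours of exposure in 96-well plates, responses at five concentrations were used to interpolate endpoints linearly. Here, GI50 denotes the concentration required for 50% inhibition of growth.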 Activity calls are given as the source filed them. Cut-off read from the data, not from the text of the source: active = GI50 up to about 1.1 µM and inactive = higher.

Common to all, as to assay: DTP human tumour cell line panel, 48 h
In assay [1] the test system is TK-10.
The subject of assay [2] is Malme-3M.
In assay [3] the test system is EKVX.
The test system of assay [4] is SK-MEL-5.
The test system of assay [5] is CCRF-CEM.
Assay [6] deals with MOLT-4.
Assay [7] relates to SNB-19.
The test system of assay [8] is K562.
In assay [9] the test system is SNB-75.
Assay [10] deals with UACC-257.
For assay [11], the system named is COLO 205.
Assay [12] relates to M14.
Assay [13] has as its system SR.
Assay [14] relates to HT-29.
Assay [15] has as its system KM-20L2.
Assay [16] relates to UACC-62.
In assay [17] the test system is CAKI-1.
Assay [18] concerns OVCAR-3.
The test system of assay [19] is SN12C.
Assay [20] concerns MCF7.

Take `Cc1ccccc1OCC(COC(=O)Nc1ccccc1)OC(=O)Nc1ccccc1` (configuration not stated): the GI50 in assay [1] is > 100 µM (inactive); in assay [2], 30.9 µM (inactive); in [3], > 100 µM (inactive); in assay [4], > 100 µM (inactive); in assay [5] it was > 100 µM (inactive); in [6] it was 3.49 µM (inactive). Besides, the GI50 in [7] was 22.1 µM (inactive); in assay [8], 4.05 µM (inactive); in [9], 7.1 µM (inactive); in assay [10], > 100 µM (inactive); in assay [11], 72.3 µM (inactive); in assay [12], 28.1 µM (inactive). In addition, the GI50 in assay [13] is 12.1 µM (inactive); in [14], 31.6 µM (inactive); in assay [15], 52.2 µM (inactive); in assay [16], 23.3 µM (inactive); in assay [17] it was 26.5 µM (inactive); in assay [18], 87.7 µM (inactive). Also, in assay [19], the GI50 was 26.8 µM (inactive).
As to `CCC(C)COC(=O)c1ccc(/N=C\c2ccc(/C=N/c3ccc(C(=O)OCC(C)CC)cc3)cc2)cc1` (configuration not stated), the GI50 in assay [2], in [3], in assay [4], in assay [5], in assay [6] and in assay [7] was > 100 µM (inactive) in each case. Besides, the GI50 in assay [8], in assay [9], in [10], in assay [11], in assay [12] and in assay [13] was > 100 µM (inactive) throughout. In addition, the GI50 in [14], in assay [15], in assay [16], in [17], in assay [18] and in assay [19] was > 100 µM (inactive) each time.
As to `CN(C)CCNC(=O)c1cccc2c1C(=O)c1ccccc1C2=O`, the GI50 is 13.1 µM (inactive) in assay [2]; 63.8 µM (inactive) in [3]; 20.5 µM (inactive) in assay [4]; 23.8 µM (inactive) in assay [5]; 20.5 µM (inactive) in assay [6]; 28 µM (inactive) in [7]. Moreover, the GI50 in assay [8] is 19.1 µM (inactive); in [9], > 100 µM (inactive); in [10], 19.5 µM (inactive); in assay [11] it was 16 µM (inactive); in [14], 26.2 µM (inactive); in [15], 28 µM (inactive). The GI50 in assay [16] is 21.4 µM (inactive); in [17], 32.4 µM (inactive); in assay [18] it was 19.3 µM (inactive); in assay [19] it was 33.7 µM (inactive); in assay [20] it was 16.2 µM (inactive).
With `CC(/C=N/N=C(N)N)=N\N=C(N)N`, the GI50 in assay [1] was 44.7 µM (inactive); in assay [2] it was 33.9 µM (inactive); in assay [3] it was 29.1 µM (inactive); in [4], 191 µM (inactive); in [5] it was 4.73 µM (inactive); in assay [6], 9.25 µM (inactive). Also, the GI50 in [7] is 36.1 µM (inactive); in [8] it was 8.73 µM (inactive); in assay [9], 25.2 µM (inactive); in assay [10], 140 µM (inactive); in [11], 3.02 µM (inactive); in [12] it was 43.6 µM (inactive). The GI50 in assay [13] is > 57.3 µM (inactive); in assay [15], 12.8 µM (inactive); in assay [16], 46.6 µM (inactive); in assay [18] it was 6.11 µM (inactive); in assay [19] it was 106 µM (inactive); in assay [20] it was 27.4 µM (inactive).
Turning to `CC1=CC2c3cccc4[nH]cc(c34)CC2N(C)C1` (configuration not stated), the GI50 is 30.3 µM (inactive) in assay [2]; > 100 µM (inactive) in assay [3]; > 76.9 µM (inactive) in [4]; > 91.6 µM (inactive) in assay [5]; > 68.1 µM (inactive) in assay [6]; > 100 µM (inactive) in assay [7]. The GI50 was 32.7 µM (inactive) in [8]; 38.5 µM (inactive) in assay [9]; 22.4 µM (inactive) in assay [10]; 55.6 µM (inactive) in assay [11]; 49.4 µM (inactive) in assay [14]; > 76.2 µM (inactive) in assay [15]. In addition, the GI50 in assay [16] was > 91.8 µM (inactive); in assay [17] it was 66.7 µM (inactive); in assay [18], > 100 µM (inactive); in [19], > 89.5 µM (inactive); in assay [20] it was 95.1 µM (inactive).
Regarding `Cc1c2c(cc3c1[nH]c1ccccc13)C(c1ccc(F)cc1)=NCC2`, the GI50 in assay [2] is 1.68 µM (inactive); in assay [3] it was 2.07 µM (inactive); in [4] it was 1.72 µM (inactive); in [5], 1.14 µM (inactive); in [6], 1 µM (active); in [7], 1.41 µM (inactive). For the same compound, the concentration for 50% growth inhibition (GI50) in assay [8] is 0.379 µM (active); in assay [9] it was 1.24 µM (inactive); in [10], 1.03 µM (active); in [11], 0.679 µM (active); in assay [14], 1.17 µM (inactive); in [15], 1.11 µM (active). The GI50 in assay [16] is 0.935 µM (active); in assay [17], 0.796 µM (active); in assay [18], 0.993 µM (active); in [19] it was 1.63 µM (inactive); in assay [20] it was 1.09 µM (active).
`O=S(=O)(O)c1cc2ccc1/C=C\c1ccc(cc1S(=O)(=O)O)/N=N\c1ccc(c(S(=O)(=O)O)c1)/C=C\c1ccc(cc1S(=O)(=O)O)/N=N\2`: the GI50 in assay [2], in [3], in [4], in assay [5], in assay [6] and in [7] was > 100 µM (inactive) in each case. In addition, the GI50 in assay [8], in assay [9], in assay [10], in [11], in assay [14] and in assay [15] was > 100 µM (inactive) in each case. The GI50 in assay [16], in assay [18], in assay [19] and in assay [20] was > 100 µM (inactive) in each case.
`COc1cc([C@@H]2c3cc4c(c(O[C@@H]5O[C@H]6CO[C@@H](C)O[C@H]6[C@H](O)[C@@H]5O)c3C[C@H]3COC(=O)[C@@H]32)OCO4)cc(OC)c1O`: the GI50 is > 29.9 µM (inactive) in assay [2]; 5.55 µM (inactive) in [3]; 5.08 µM (inactive) in [4]; 11.9 µM (inactive) in assay [5]; 10.6 µM (inactive) in assay [6]; 23.7 µM (inactive) in [7]. Also, the GI50 in [8] was 4.53 µM (inactive); in assay [9] it was 5.32 µM (inactive); in assay [10] it was 5.93 µM (inactive); in [11], 38.8 µM (inactive); in [14], 33.7 µM (inactive); in assay [15], 34.9 µM (inactive). Also, the GI50 in [16] is 4.8 µM (inactive); in assay [18], 6.76 µM (inactive); in assay [19], 12.6 µM (inactive); in [20], 4.15 µM (inactive).
As for `COC1C(O)CC(OC2CC(Oc3cc4cc5c(c(O)c4c(O)c3C)C(=O)[C@@H](OC3CC(OC4CC(OC6CC(C)(O)C(OC(C)=O)C(C)O6)C(O)C(C)O4)C(O)C(C)O3)[C@H]([C@H](OC)C(=O)[C@@H](O)[C@@H](C)O)C5)OC(C)C2OC(C)=O)OC1C` (some centres not stated) [CHROMOMYCIN], the concentration for 50% growth inhibition (GI50) in [1] was 0.000119 µM (active); in assay [2], 0.00328 µM (active); in [3], 0.00532 µM (active); in assay [4], < 0.01 µM (active); in [5], < 0.01 µM (active); in assay [6], < 0.01 µM (active). In addition, the concentration for 50% growth inhibition (GI50) in [7] is 0.00424 µM (active); in [8] it was 0.00566 µM (active); in [9], < 0.01 µM (active); in assay [10], < 0.01 µM (active); in [11], < 0.01 µM (active); in [13], < 0.01 µM (active). Moreover, the GI50 in assay [14] was < 0.01 µM (active); in assay [15], 0.00397 µM (active); in [16], 0.00295 µM (active); in [17] it was < 0.01 µM (active); in assay [18], < 0.01 µM (active); in assay [19], 0.0101 µM (active). Besides, the GI50 in assay [20] was 0.00312 µM (active).

A word on the GI50: it is the concentration giving 50% growth inhibition.
